Literature values in PMC10975502 (Methods in molecular biology (Clifton, N.J.), 2022).

Details: result in words

cyclo(FfΦRrRrQ) [CPP12]
activity in cytosolic delivery: high activity
